One experiment concerns HCT116 MTAP−/−. Put plainly: Inhibition of cellular proliferation (Cell Titer Glo), HCT116 MTAP-/-. The format is cell-based. Particulars: Homo sapiens, HCT-116, 96 h, 4 days, read-out: 4 Day Relative Growth Inhibition (MTAP −/−). In outline: (§1)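 Isogenic HCT116 MTAP+/+ and MTAP−/− cells treated 24 h after plating with 10-point 3-fold dilutions, then grown 4 days at 37 °C/5% CO2. ATP content read by Cell Titer Glo luminescence, blank-subtracted and normalized to 0.2% DMSO control, plotted as percent proliferation change versus log molar concentration.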

The subject of experiment [1] is MAT2A activity (SAM) in HCT116 cells with deleted MTAP gene. Description: Cellular assay of target engagement (SAM) by LC-MS/MS. Particulars: Homo sapiens, HCT-116; HCT116 MTAP −/−, 72 hrs; read-out: Cell 72 h SAM Inhibition (MTAP −/−). It is filed as cell-based. A digest of the protocol: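 HCT116 MTAP-deleted cells treated with 10-point 3-fold DMSO serial dilutions of compound for 72 hrs at 37° C. Cells lysed in cold 80% methanol/acetic acid extraction buffer with d3-SAM internal standard; SAM quantified by LC-MS/MS (MRM m/z 399.2→250.1).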

A further experiment deals with T1, MAT2A homodimer (Homo sapiens, UniProt P31153).
T1 construct: inferred from Ni sepharose purification and imidazole elution; made in house; host or cells: SF9 insect cells, recombinant baculovirus (Bac to Bac, pFASTBAC1)
Description: MAT2A biochemical assay (phosphate release, PiColorLock Gold). Conditions: recombinant MAT2A homodimer, 60 min pre-incubation, 25° C.; read-out: Enzyme Inhibition. A digest of the protocol:
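Baculovirus/Sf9-expressed, Ni-purified MAT2A homodimer (4 µg/mL in pH 8.0 Tris/KCl/MgCl2 buffer) preincubated 60 min at 25 °C with compound (2% DMSO final). Substrate mix of 500 µM ATP and 400 µM L-methionine added; 60 min at 25 °C; released phosphate quantified colorimetrically against a phosphate standard curve.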

The next experiment relates to HCT116 MTAP+/+. Put plainly: Inhibition of cellular proliferation (Cell Titer Glo), HCT116 MTAP+/+. It is filed as cell-based. Conditions: Homo sapiens, HCT-116, 96 h, 4 days, read-out: 4 Day Relative Growth Inhibition (MTAP +/+). A digest of the protocol: as §1

T1 sequence (P31153 whole entry): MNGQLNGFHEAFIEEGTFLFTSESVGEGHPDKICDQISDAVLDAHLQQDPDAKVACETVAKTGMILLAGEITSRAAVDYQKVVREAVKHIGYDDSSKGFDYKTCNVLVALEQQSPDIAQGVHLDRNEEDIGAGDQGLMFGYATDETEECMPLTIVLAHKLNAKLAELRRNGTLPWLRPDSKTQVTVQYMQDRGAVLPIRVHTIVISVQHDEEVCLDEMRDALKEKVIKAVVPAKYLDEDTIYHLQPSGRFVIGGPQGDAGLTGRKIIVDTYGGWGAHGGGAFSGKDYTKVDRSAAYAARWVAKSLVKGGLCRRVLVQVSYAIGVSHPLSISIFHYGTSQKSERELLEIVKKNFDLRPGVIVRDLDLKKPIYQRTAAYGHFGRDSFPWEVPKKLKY

As for `CCOc1ccc2nn(-c3ccc(OC)cc3)c(=O)c(-c3ccc(OC(F)F)cc3)c2n1` [Example 135], the IC50 in the experiment with HCT116 MTAP−/− is 100 to 1000 nM; in experiment [1] it was less than 100 nM; at MAT2A homodimer, less than 100 nM; with HCT116 MTAP+/+ it was not below 1000 nM.

Turning to `Cn1cc2cc(-n3nc4c(CO)cc(OCC(F)F)nc4c(-c4ccc(OC(F)F)cc4)c3=O)ccc2n1` [Example 209, 6-(2,2-difluoroethoxy)-4-(4-(difluoromethoxy)phenyl)-8-(hydroxymethyl)-2-(2-methyl-2H-indazol-5-yl)pyrido[3,2-c]pyridazin-3(2H)-one], the IC50 in the experiment on HCT116 MTAP−/− was less than 100 nM; in experiment [1], less than 100 nM; at MAT2A homodimer, less than 100 nM; with HCT116 MTAP+/+, not below 1000 nM.

Consider `Cn1cc2cc(-n3nc4c(N)cc(OCC(F)F)nc4c(-c4ccc(OC(F)F)cc4)c3=O)ccc2n1` [Example 212, 8-amino-6-(2,2-difluoroethoxy)-4-(4-(difluoromethoxy)phenyl)-2-(2-methyl-2H-indazol-5-yl)pyrido[3,2-c]pyridazin-3(2H)-one], for which the IC50 in the experiment with HCT116 MTAP−/− was less than 100 nM; in experiment [1] it was less than 100 nM; at MAT2A homodimer, less than 100 nM; with HCT116 MTAP+/+, 100 to 1000 nM.

Regarding `Cn1cc2cc(-n3nc4ccc(OCC(F)F)nc4c(-c4ccc(C5CC5)nc4)c3=O)ccc2n1` [Example 107], the IC50 in the experiment on HCT116 MTAP−/− was less than 100 nM; in experiment [1], less than 100 nM; at MAT2A homodimer, less than 100 nM; in the experiment on HCT116 MTAP+/+, not below 1000 nM.

With `[2H]C([2H])([2H])Oc1ccc(-c2c(=O)n(-c3ccc4nn(C)cc4c3)nc3ccc(OCC)nc23)cc1` [Example 110], the IC50 in the experiment with HCT116 MTAP−/− was less than 100 nM; in experiment [1], less than 100 nM; on MAT2A homodimer, less than 100 nM; with HCT116 MTAP+/+, 100 to 1000 nM.

Regarding `Cn1cc2cc(-n3nc4ccc(OCC(F)F)nc4c(-c4ccc5[nH]cc(C#N)c5c4)c3=O)ccc2n1` [Example 331, 5-(6-(2,2-difluoroethoxy)-2-(2-methyl-2H-indazol-5-yl)-3-oxo-2,3-dihydropyrido[3,2-c]pyridazin-4-yl)-1H-indole-3-carbonitrile], the IC50 is less than 100 nM with HCT116 MTAP−/−, less than 100 nM in experiment [1], less than 100 nM on MAT2A homodimer and not below 1000 nM in the experiment on HCT116 MTAP+/+.

In the case of `CCSc1ccc2nn(-c3ccc4nn(C)cc4c3)c(=O)c(-c3ccc(OC(F)F)cc3)c2n1` [Example 158], the IC50 in the experiment on HCT116 MTAP−/− was less than 100 nM; in experiment [1], less than 100 nM; at MAT2A homodimer, less than 100 nM; in the experiment on HCT116 MTAP+/+, not below 1000 nM.

`O=c1c(-c2ccc(OC(F)F)cc2)c2nc(OCC(F)F)ccc2nn1-c1ccc2nncn2c1` [Example 184]: the IC50 in the experiment with HCT116 MTAP−/− was 100 to 1000 nM; in experiment [1] it was less than 100 nM; on MAT2A homodimer, less than 100 nM; in the experiment on HCT116 MTAP+/+ it was not below 1000 nM.

For `CCOc1ccc2nn(-c3ccc4nn(C)cc4c3)c(=O)c(-c3ccc(OC(F)(F)F)cc3)c2n1` [Example 104], the IC50 was 100 to 1000 nM in the experiment on HCT116 MTAP−/−, 100 to 1000 nM in experiment [1], less than 100 nM at MAT2A homodimer and not below 1000 nM in the experiment on HCT116 MTAP+/+.

With `Cn1cc2cc(-n3nc4ccc(OCC(F)F)nc4c(-c4ccc(Cl)cc4)c3=O)ccc2n1` [Example 124], the IC50 is less than 100 nM in the experiment with HCT116 MTAP−/−, less than 100 nM in experiment [1], less than 100 nM on MAT2A homodimer and 100 to 1000 nM in the experiment with HCT116 MTAP+/+.

As for `COC1CC=C(n2nc3ccc(OCC(F)F)nc3c(-c3ccc(OC(F)F)cc3)c2=O)CC1` (stereo not shown) [Example 187], the IC50 in the experiment on HCT116 MTAP−/− is not below 1000 nM; in experiment [1], 100 to 1000 nM; at MAT2A homodimer it was less than 100 nM; with HCT116 MTAP+/+, not below 1000 nM.

As for `CCNc1nc2c(-c3ccc(OC(F)F)cc3)c(=O)n(-c3ccc4nn(C)cc4c3)nc2cc1F` [Example 196], the IC50 in the experiment with HCT116 MTAP−/− was less than 100 nM; in experiment [1] it was less than 100 nM; on MAT2A homodimer, less than 100 nM; with HCT116 MTAP+/+, not below 1000 nM.

Take `CCOc1ccc2nn(-c3ccc4nn(C)cc4c3)c(=O)c(-c3ccc(C(F)(F)F)nc3)c2n1` [Example 127]: the IC50 was less than 100 nM in the experiment on HCT116 MTAP−/−, less than 100 nM in experiment [1], less than 100 nM at MAT2A homodimer and not below 1000 nM in the experiment on HCT116 MTAP+/+.

The values are drawn from patent US12077534B2, “Aza-heterobicyclic inhibitors of MAT2A and methods of use for treating cancer” (Les Laboratoires Servier SAS, priority 2018, dated 2024).
